# Values quoted from earlier work, collected in patent US20110275591A1, “COCKTAIL FOR MODULATION OF ALZHEIMER'S DISEASE” (Concourse Health Sciences LLC, priority 2004, published 2011).
# How the values were obtained:
# [1] = test system: SAMP8 mouse; conditions: for cognition in T-maze footshock avoidance paradigm and lever press appetitive task: chronic administration
# [2] = test system: patients with probable AD; conditions: after 3 and 6 months of treatment; significant differences only for a subset of cognitive tasks
# [3] = test system: primary neurons of rat cerebral cortex; conditions: MTT and propidium iodide assays
# [4] = test system: children with autistic spectrum disorders; conditions: 8-week study; all p<0.05
# [5] = test system: cultured hippocampal neurons
# [6] = test system: diabetic rats
# [7] = test system: Alzheimer transgenic mice; conditions: dietary curcumin
# [8] = co-treatment during 48-hour Aβ exposure, vs controls with no EGCG
compound,measurement,setting,value
"CC(=O)N[C@@H](CS)C(=O)O [NAC, N-Acetylcysteine, reference compound]",cognition in T-maze footshock avoidance paradigm and lever press appetitive task,[1]; 12-month-old SAMP8 mice,improved cognition
same,blood-brain barrier passage,[1]; SAMP8 mice,crossed the blood-brain barrier and accumulated in the brain
same,efficacy outcome measures (cognitive tasks),[2],beneficial results on nearly every outcome measure
"O=C(O)CCCCC1CCSS1 (stereo not drawn) [ALA, Alpha lipoic acid]","indexes of oxidative stress (protein carbonyls, TBARS, W/S ratio of MAL-6)",[1]; 12-month-old SAMP8 mice,reversed all three indexes of oxidative stress
same,cognition in T-maze footshock avoidance paradigm and lever press appetitive task,[1]; 12-month-old SAMP8 mice,improved cognition
same,protection against cytotoxicity induced by Aβ peptide,[3]; Aβ peptide 30 microM,protected cortical neurons against cytotoxicity
same,protection against cytotoxicity induced by H2O2,[3]; H2O2 100 microM,protected cortical neurons against cytotoxicity
"NCCC(=O)N[C@@H](Cc1cnc[nH]1)C(=O)O [L-carnosine, b-alanyl-L-histidine]",Gilliam Autism Rating Scale and Receptive One-Word Picture Vocabulary test,[4],statistically significant improvements
Epigallocatechin-3-gallate [EGCG],cell survival,"[5]; Aβ-exposed neurons, vs controls",increased survival
same,levels of caspase C,[5]; [8],decreased
same,levels of malondiadehyde,[5]; [8],decreased
"COc1cc(/C=C/C(=O)CC(=O)/C=C/c2ccc(O)c(OC)c2)ccc1O [curcumin, Curcumin]",lipid peroxidation products (indicators of oxidative stress),[6]; curcumin fed rats,significant reduction
same,accumulation of advanced glycation endproducts,"[6]; dietary curcumin 200 mg/kg body weight, vs control diabetic rats without curcumin",prevents the accumulation
same,levels of interleukin-1 beta,[7],decreased levels
same,levels of oxidized proteins,[7],decreased levels
same,microgliosis,[7],suppression
